Assay [1] relates to protein synthesis. The assay can be described thus: inhibition of protein synthesis by cycloheximide. Type of assay: cell-based. The note with it: 100 μg/ml. The method, then:
The half-life of the protein encoded by plasmid pUbiq(Y)Luc 19 was determined in mammalian cells and compared to the half-lives of wild-type luciferase as well as fusion proteins comprising firefly luciferase and a mutant form of the C-ODC (Luc-PEST10). This was done by evaluating the luminescence emitted by cells that were transiently transfected with either plasmid pUbiq(Y)Luc19 or pwtLuc1 or pLuc-PEST 10, respectively, and then, for different periods of time, were exposed to the protein synthesis inhibitor cycloheximide. […] The estimated half-life of Ubiq(Y)Luc in these cells is about 170-200 minutes, which is far longer than the half-lives reported by Varshavsky (1992) for P-galactosidase containing a tyrosine residue at the N-terminus both in E. coli and S. cerevisiae (2 and 10 minutes, respectively).

Assay [2] concerns COS-7 cells. The assay is described as follows: cycloheximide treatment of transiently transfected COS-7 cells, luminescence of accumulated luciferase. In kind it is cell-based, African green monkey. To be noted: cycloheximide 100 μg/ml. The method, then:
For transfection, cells were grown to confluence in T25 flasks (Falkon, Becton Dickinson, Oxford). Transfection was conducted in 1 ml of serum-free RPMI-1640 that was mixed with 8 μg of plasmid DNA and 20 μl of Lipofectamine™2000 (GIBCO BRL). CHO cells were incubated in the transfection media for 30 minutes, HeLa cells for 1 hour, and COS-7 cells for 5 hours. Following incubation, cells were trypsinized with Trypsin-EDTA (GIBCO BRL) and collected by centrifugation. […]
To determine firefly luciferase activity, cells were lysed by freeze/thawing. Lysate from each well (100 μl) was transferred into corresponding wells of opaque 96 well plates (Falkon, Becton Dickinson, Oxford) containing 100 μl of Bright-Glo™ Luciferase Assay System (Promega) and luminescence intensity was determined using MLX Microtiter Plate Luminometer (Dynex). The activity of Renilla luciferase was measured by mixing 40 μl samples with 100 μl of assay reagent from the Renilla Luciferase Assay System (Promega).
The half-life of the protein encoded by plasmid pUbiq(Y)Luc 19 was determined in mammalian cells and compared to the half-lives of wild-type luciferase as well as fusion proteins comprising firefly luciferase and a mutant form of the C-ODC (Luc-PEST10). […]

The conditions of assay [3]: literature; cited from earlier work.
The subject of assay [4] is S. cerevisiae. To be noted: yeast / S. cerevisiae, cited from earlier work.
For assay [5], the system named is E. coli. The note with it: cited from earlier work.

Read-outs that look alike come from different tables or passages of the source.

Turning to `C[C@@H]1C[C@@H]([C@H](O)CC2CC(=O)NC(=O)C2)C(=O)[C@@H](C)C1` [cycloheximide], the “time to complete inhibition of protein synthesis” value in assay [1] was ≤ 7.5 min.
By half-life is commonly meant the time in which the quantity being followed falls by half. Take “wild-type luciferase: wild-type firefly luciferase encoded by plasmid pwtLuc1”: the half-life result in assay [2] is on record as “about 7 hours”; in assay [3] it was “about 3.68 hours”.
For the compound β-galactosidase, the half-life was 20 h in assay [4], > 20 h in assay [4] (listed as wild-type P-galactosidase) and “more than 10 hours” in assay [5].

The values above are taken from patent US20040146987A1, “Rapidly degraded reporter fusion proteins” (Promega Corporation, priority 2002, published 2004).
